Test results from US7544700B2, “Pharmaceutically active sulfonamide derivatives bearing both lipophilic and ionisable moieties as inhibitors of protein JunKinases” (Laboratoires Serono SA, priority 2000, dated 2009).

Tests used:
[1] = molecular target: GST-JNK2 (Homo sapiens, UniProt P45984); assay: JNK2 in vitro assay (33P incorporation into c-jun, SPA); format: biochemical
Protocol: (§1) The phosphorylation of c-jun by JNK2 or JNK3 may be followed by monitoring the incorporation of ^33P into c-jun following the protocol below. The inhibitory activity of the compounds according to formula I, in respect of c-jun phosphorylation through JNK, is determined by calculating the phosphorylation activity of a JNK in the presence or absence of the test compounds according to formula I.
(§2) JNK3 and/or -2 assays are performed in 96 well NM plates: incubation of 0.5 μg of recombinant, pre-activated GST-JNK3 or GST-JNK2 with 1 μg of recombinant, biotinylated GST-c-Jun and 2 μM ^33γ-ATP (2 nCi/μl), in the presence or absence of compounds according to formula I and in a reaction volume of 50 μl containing 50 mM Tris-HCl, pH 8.0; 10 mM MgCl2; 1 mM Dithiothreitol, and 100 μM NaVO4. The incubation is performed for 120 min. at R.T and stopped upon addition of 200 μl of a solution containing 250 μg of Streptavidine-coated SPA beads (Amersham, Inc.)*, 5 mM EDTA, 0.1% Triton X-100 and 50 μM ATP, in phosphate saline buffer. After incubation for 60 minutes at RT, beads are sedimented by centrifugation at 1500×g for 5 minutes, resuspended in 200 μl of PBS containing 5 mM EDTA, 0.1% Triton X-100 and 50 μM ATP and the radioactivity measured in a scintillation β counter, following sedimentation of the beads as described above. By replacing biotinylated GST-c Jun with biotinylated GST-1ATF2 or biotinylated myelin basic protein, this assay may also be used to measure inhibition of pre-activated p38 and ERK MAP Kinases, respectively.

[2] = molecular target: GST-JNK3 (Homo sapiens, UniProt P53779); assay: JNK3 in vitro assay (33P incorporation into c-jun, SPA); format: biochemical
Protocol: as §1, §2

[3] = tested on: Hela luciferase reporter-c-Jun (HLR-c-Jun) cell lines; assay: C-Jun reporter assay; format: cell-based; conditions: Homo sapiens, MEKK-1 transfected HLR-c-Jun cells
Text: The phosphorylation of the transcriptional factor, c-jun, by JNK in the MAP kinase signal transduction pathway can be followed via a trans-reporting system such as the commercially available PathDetect® (32).
A trans-reporting system allows one to follow, via Luciferase activity, the activation status of a fusion trans-activator protein. The trans-activator protein consists of the activation domain of the transcriptional factor of interest (c-jun) fused with a yeast transcriptional activator, GAL4 DNA binding domain (dbd). The GAL4 dbd has the advantage that no known mammalian transcriptional factors can bind to it and therefore the background noise of the assay is very low.
In the present case, Hela luciferase reporter-c-Jun (HLR-c-Jun) cell lines which constitutively express GAL4-cJun were used.
The MEKK-1 gene was inserted. MEKK-1 is a MAPKKK which triggers the activation of JNK. Expression of wild type MEKK-1 is sufficient for JNK activation (33).
Once, JNK is activated it can induce the phosphorylation of the c-jun domain of the fusion trans-activator protein (GAL4dbd-cJun) which forms a dimer. The dimer is then is able to bind to a GAL4 upstream activating sequence (GAL4 UAS) of the reporter which activates Luciferase expression.
Luciferase expression is detected by luminescence using a simple assay such as Dual-Luciferase® Reporter Assay System (34) in which Renilla is used as a “control reporter”.
Inhibition of JNK is observed as a decrease in Luciferase expression and detected by a decrease in luminescence.
HLR-c-Jun cells are cultured in DMEM High Glc supplemented with 10% FCS (Sigma), 2 mM Glutamine (Gibco), P/S, Hygromycin b 100 μg/mL and G418 250 μg/mL.
The cell suspensions are diluted with medium to give about 3.5×10^6 cells/mL and […] of cell suspension are put onto 2 10 cm culture dishes containing 9 mL of culture medium.
Transfections • Control: 0.2 μg pTK Renilla, 5.8 μg pBluescript KS, 500 μl OPTIMEM (GOBCO), 18 μl Fugene 6. • Induced: 0.1 μg pMEKK1, 0.2 μg pTK Renilla, 5.7 μg pBluescript KS, 500 μl OPTIEM (GIBCO), 18 μl Fugene 6 30′ RT.
The transfection mixture is added to the plated cells. The plates are incubated over night at 37° C. in a humidified atmosphere of 5% CO2 in air.
A 96 wells plate (100 μl of culture medium per well) is prepared. Negative control (vehicle): 2 μl of DMSO is added to the 100 μl (in triplicate). […]
The medium is removed from the plate and the cells are washed two times with 100 μl PBS. […] The luminometer reading is recorded.
−50 μl of Luciferase Assay Reagent II are injected and readings are recorded at 5 and 10 minutes.
50 μl of Stop & Glo® Reagent are injected and readings are recorded at 5 and 10 minutes.
The relative luminescence is then measured: RLU Luciferase/RLU Renilla.

[4] = tested on: IL-2 release by (PMA+Ionomycin)-stimulated Jurkat cells; assay: IL-2 release assay (IL-2 ELISA); format: cell-based; conditions: Homo sapiens; PMA + Ionomycine stimulated Jurkat cells
Protocol: The Ability of the Compounds According to Formula I to Modulate the Inflammatory Response by Inhibiting the Release of IL-2 was Assessed Using the Following Protocol
JNK pathway activation triggers the production of inflammatory cytokines such as IL-2. JNK can be activated by external stimuli such as PMA and Ionomycine and IL-2 production can be measured via an IL-2 ELISA test. Comparative measurements with and without the compounds of the invention according to the following protocol measure the ability of the compounds to prevent to stress-mediated IL-2 release.
Jurkat cells, a human T cell leukemia cell line (American Type Culture Collection # TIB 152) were cultured in RPMI 1640 medium (Gibco, BRL) supplemented with 10% of […] fetal calf serum (FCS), Glutamine and Penstrep. The cell suspension in the medium is diluted to give 2.10^6 cells/mL. The cells were plated (2.10^5 cells/well) on a 96-well plate containing different concentrations of a compound according to formula I (final concentration of compounds, 10, 3, 1, 0.3, 0.1 μM). This mixture is incubated 30 minutes at 37° C. in a humidified CO2 atmosphere. Cells were then treated with 10 μl PMA (Phorbolmyristate-13 Acetate-12)+Ionomycine (0.1 μM and 1 μM final concentration) in all wells except negative control. In wells without compounds, 10 μl of RPMI 2% DMSO (=0.1% final) is added. Cells are incubated 24 hours at 37° C. and then the supernatant harvested (freeze at −20° C. if not used the same day) prior to performing IL-2 ELISA test on the supernatant.
IL-2 release into the medium by (PMA+Iononomycin)-stimulated Jurkat cells, in presence or absence of test compounds may be assayed by ELISA. Following the procedure described below.
Monoclonal anti-human IL-2 antibody (MAB602) (capture), biotinylated anti-human IL-2 antibody (BAF202) (detection) and recombinant human IL-2 (202-IL-010) (standard) from From R&D Systems are used. […]
• 1. […] Optical density is measured using a microtiter plate reader set to 450 nm with correction at 570 nm.

[5] = Solubility in water; format: physicochemical; conditions: pH 7.4, aqueous buffer, pH of 7.4 at room temperature
Protocol: The compounds have been assessed in respect of their solubility in water, at a pH of 7.4 at room temperature. In general the solubility of compounds of formula (I) is in a range of at least 50 μg/mL solvent, more preferably of at least 100 μg/mL solvent. For instance compounds (63), (163), (198) display a solubility in water of at least 200 μg/mL solvent.

[6] = molecular target: JNK1 (Homo sapiens, UniProt P45983); assay: JNK1 inhibition; format: biochemical; conditions: read-out: inhibition (IC50) with regard to JNK1
Chain of JNK1 (P45983 whole entry, species assumed): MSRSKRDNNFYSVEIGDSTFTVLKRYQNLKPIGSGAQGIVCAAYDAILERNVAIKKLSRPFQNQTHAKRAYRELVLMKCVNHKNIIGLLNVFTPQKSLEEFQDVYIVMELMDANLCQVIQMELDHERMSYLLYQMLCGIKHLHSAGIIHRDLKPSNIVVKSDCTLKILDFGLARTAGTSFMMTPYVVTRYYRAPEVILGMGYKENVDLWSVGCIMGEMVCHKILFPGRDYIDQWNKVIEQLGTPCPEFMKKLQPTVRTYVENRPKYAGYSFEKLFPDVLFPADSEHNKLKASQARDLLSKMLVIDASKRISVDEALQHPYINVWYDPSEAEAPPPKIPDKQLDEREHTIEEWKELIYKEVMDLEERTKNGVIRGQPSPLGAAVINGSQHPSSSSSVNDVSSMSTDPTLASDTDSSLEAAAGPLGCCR

Chain of GST-JNK2 (P45984 whole entry): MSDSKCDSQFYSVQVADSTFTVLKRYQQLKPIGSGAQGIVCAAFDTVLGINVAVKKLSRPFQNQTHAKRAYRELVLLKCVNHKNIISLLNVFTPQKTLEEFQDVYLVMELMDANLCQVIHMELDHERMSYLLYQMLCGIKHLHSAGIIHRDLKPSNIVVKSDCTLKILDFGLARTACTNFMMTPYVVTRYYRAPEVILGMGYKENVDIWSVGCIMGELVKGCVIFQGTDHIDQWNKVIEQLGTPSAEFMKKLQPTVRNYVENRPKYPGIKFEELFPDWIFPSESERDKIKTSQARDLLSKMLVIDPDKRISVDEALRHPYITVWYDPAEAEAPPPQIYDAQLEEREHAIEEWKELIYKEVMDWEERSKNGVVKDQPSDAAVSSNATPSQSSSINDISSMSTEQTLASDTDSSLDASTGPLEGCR
Chain of GST-JNK3 (P53779 whole entry): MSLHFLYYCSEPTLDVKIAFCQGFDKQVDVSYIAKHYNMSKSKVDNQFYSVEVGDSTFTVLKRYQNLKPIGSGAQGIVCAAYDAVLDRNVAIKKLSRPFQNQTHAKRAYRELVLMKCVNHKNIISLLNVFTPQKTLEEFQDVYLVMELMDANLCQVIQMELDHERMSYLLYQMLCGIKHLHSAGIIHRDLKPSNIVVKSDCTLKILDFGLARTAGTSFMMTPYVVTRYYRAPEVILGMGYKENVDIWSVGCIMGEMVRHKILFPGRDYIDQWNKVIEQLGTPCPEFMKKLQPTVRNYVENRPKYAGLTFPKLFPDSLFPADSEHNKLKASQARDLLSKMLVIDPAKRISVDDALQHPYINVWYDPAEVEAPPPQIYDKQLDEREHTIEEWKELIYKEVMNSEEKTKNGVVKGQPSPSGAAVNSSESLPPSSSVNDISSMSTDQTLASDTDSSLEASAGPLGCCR

Row | Compound | IC50 [1] | IC50 [2] | other results
1 | CCCCCNCC1CCN(S(=O)(=O)c2ccc(CNC(=O)c3cccc(OC)c3)s2)CC1 [Example 195, 3-methoxy-N-{[5-({4-[(pentylamino)methyl]piperidin-1-yl}sulfonyl)-thien-2-yl]methyl}benzamide] | < 600 nM | < 600 nM | –
2 | COc1cccc(C(=O)NCc2ccc(S(=O)(=O)N3CCC(NCCCN4CCOCC4)C3)s2)c1 (stereo not drawn) [Example 176, 3-methoxy-N-{[5-({3-[(3-morpholin-4-ylpropyl)amino]pyrrolidin-1-yl}sulfonyl)thien-2-yl]methyl}benzamide] | < 600 nM | < 600 nM | –
3 | CCCOc1ccc(CNC2CCN(S(=O)(=O)c3ccc(CNC(=O)c4cccc(OC)c4)s3)CC2)cc1 [Example 11, 3-methoxy-N-{[5-({4-[(4-propoxybenzyl)amino]piperidin-1-yl}sulfonyl)thien-2-yl]methyl}benzamide] | – | – | IC50 [3]: < 700 nM
4 | O=C(NCc1ccc(S(=O)(=O)N2CCC(NCCC3CCCCC3)CC2)s1)c1ccc(Cl)cc1 [Example 70, 4-chloro-N-{[5-({4-[(2-cyclohexylethyl)amino]piperidin-1-yl}sulfonyl)thien-2-yl]methyl}benzamide] | < 600 nM | < 600 nM | –
5 | COc1cccc(C(=O)NCc2ccc(S(=O)(=O)N3CCC(NCc4ccc(S(=O)(=O)C(F)(F)F)cc4)CC3)s2)c1 [Example 64, 3-methoxy-N-[(5-{[4-({4-[(trifluoromethyl)sulfonyl]benzyl}-amino)piperidin-1-yl]sulfonyl}thien-2-yl)methyl]benzamide] | – | – | IC50 [4]: < 800 nM
6 | CCCCCCN(C)C1CCN(S(=O)(=O)c2ccc(CNC(=O)c3ccc(Cl)cc3)s2)CC1 [Example 163, 4-chloro-N-{[5-({4-[hexyl(methyl)amino]piperidin-1-yl}sulfonyl)thien-2-yl]methyl}benzamide] | – | – | solubility [5]: ≥ 200 µg/mL
7 | CCCCCCCCCCNC1CCN(S(=O)(=O)c2ccc(CNC(=O)c3cccc(OC)c3)s2)CC1 [Example 86, 3-methoxy-N-[(5-{[4-(decylamino)piperidin-1-yl]sulfonyl}thien-2-yl)methyl]benzamide] | – | – | IC50 [6]: 100 to 700 nM
8 | O=C(NCc1ccc(S(=O)(=O)N2CCC(NCc3ccc(S(=O)(=O)C(F)(F)F)cc3)CC2)s1)c1ccc(Cl)cc1 [Example 117, 4-chloro-N-[(5-{[4-({4-[(trifluoromethyl)sulfonyl]benzyl}amino)-1-piperidinyl]sulfonyl}-2-thienyl)methyl]benzamide] | – | – | IC50 [3]: < 700 nM
9 | COc1cccc(C(=O)NCc2ccc(S(=O)(=O)N3CCCC(NCCC4CCCCC4)CC3)s2)c1 (stereo not drawn) [Example 132, N-{[5-({4-[(2-cyclohexylethyl)amino]azepan-1-yl}sulfonyl)thien-2-yl]methyl}-3-methoxy-benzamide] | – | < 600 nM | –
10 | CCCCCCN(CC1CCCCC1)C1CCN(S(=O)(=O)c2ccc(CNC(=O)c3ccc(Cl)cc3)s2)CC1 [Example 155, 4-chloro-N-{[5-({4-[(cyclohexylmethyl)(hexyl)-amino]piperidin-1-yl}sulfonyl)thien-2-yl]methyl}-benzamide] | < 600 nM | < 600 nM | –
11 | COc1cccc(C(=O)NCc2ccc(S(=O)(=O)N3CCC(NCc4c(C)c(C)c(C)c(C)c4C)CC3)s2)c1 [Example 10, 3-methoxy-N-{[5-({4-[(2,3,4,5,6-pentamethylbenzyl)amino]piperidin-1-yl}sulfonyl)thien-2-yl]methyl}benzamide] | – | – | IC50 [3]: < 700 nM
